Reference: patent publication US10405547B2, “Substituted cyclic amides as herbicides” (FMC Corporation, priority 2015, dated 2019)

What was measured:
Type in all cases: in vivo
[1] = system: foxtail, giant (Setaria faberii); assay: Test A postemergence, giant foxtail; settings: 0 to 100 scale (0 no effect, 100 complete control)
In short: (§1)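 Ratings use a 0–100 scale, where 0 means no effect and 100 means complete control, and come from visual comparison with untreated plants roughly 10 days after treatment. Compounds were applied in a surfactant-containing, non-phytotoxic solvent, either to soil after seeding or to foliage of small seedlings.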

[2] = system: ragweed (common ragweed, Ambrosia elatior); assay: Test A postemergence, ragweed; settings: 0 to 100 scale (0 no effect, 100 complete control)
In short: as §1

[3] = system: pigweed (Amaranthus retroflexus); assay: Test A preemergence, pigweed; settings: 0 to 100 scale (0 no effect, 100 complete control)
In short: as §1

[4] = system: pigweed (Amaranthus retroflexus); assay: Test A postemergence, pigweed; settings: 0 to 100 scale (0 no effect, 100 complete control)
In short: as §1

[5] = system: foxtail, giant (Setaria faberii); assay: Test A preemergence, giant foxtail; settings: 0 to 100 scale (0 no effect, 100 complete control)
In short: as §1

[6] = system: barnyardgrass (Echinochloa crus-galli); assay: Test A postemergence, barnyardgrass; settings: 0 to 100 scale (0 no effect, 100 complete control)
In short: as §1

corn (Zea mays) = assay: Test A postemergence, corn; settings: 0 to 100 scale (0 no effect, 100 complete control)
In short: as §1

[7] = system: sedge, umbrella (small-flower umbrella sedge, Cyperus difformis); assay: Test B flooded paddy test, umbrella sedge; settings: applied to paddy water, visual rating after 13 to 15 days, scale 0 (no effect) to 100 (complete control)
In short: (§2)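 Greenhouse pots flooded to 3 cm above soil at time of treatment received compound via the water, which stayed at that level.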

[8] = system: ducksalad (Heteranthera limosa); assay: Test B flooded paddy test, ducksalad; settings: applied to paddy water, visual rating after 13 to 15 days, scale 0 (no effect) to 100 (complete control)
In short: as §2

[9] = system: ryegrass, Italian (Lolium multiflorum); assay: Test A preemergence, Italian ryegrass; settings: 0 to 100 scale (0 no effect, 100 complete control)
In short: as §1

kochia (Kochia scoparia) [10] = assay: Test A postemergence, kochia; settings: 0 to 100 scale (0 no effect, 100 complete control)
In short: as §1

rice (Oryza sativa) = assay: Test B flooded paddy test, rice; settings: applied to paddy water, visual rating after 13 to 15 days, scale 0 (no effect) to 100 (complete control)
In short: as §2

[11] = system: ryegrass, Italian (Lolium multiflorum); assay: Test A postemergence, Italian ryegrass; settings: 0 to 100 scale (0 no effect, 100 complete control)
In short: as §1

[12] = system: wheat (Triticum aestivum); assay: Test A postemergence, wheat; settings: 0 to 100 scale (0 no effect, 100 complete control)
In short: as §1

[13] = system: barnyardgrass (Echinochloa crus-galli); assay: Test A preemergence, barnyardgrass; settings: 0 to 100 scale (0 no effect, 100 complete control)
In short: as §1

kochia (Kochia scoparia) [14] = assay: Test A preemergence, kochia; settings: 0 to 100 scale (0 no effect, 100 complete control)
In short: as §1

[15] = system: ragweed (common ragweed, Ambrosia elatior); assay: Test A preemergence, ragweed; settings: 0 to 100 scale (0 no effect, 100 complete control)
In short: as §1

[16] = system: blackgrass (Alopecurus myosuroides); assay: Test A postemergence, blackgrass; settings: 0 to 100 scale (0 no effect, 100 complete control)
In short: as §1

[17] = system: galium (catchweed bedstraw, Galium aparine); assay: Test A postemergence, galium; settings: 0 to 100 scale (0 no effect, 100 complete control)
In short: as §1

[18] = system: barnyardgrass (Echinochloa crus-galli); assay: Test B flooded paddy test, barnyardgrass; settings: applied to paddy water, visual rating after 13 to 15 days, scale 0 (no effect) to 100 (complete control)
In short: as §2

[19] = 125 g ai/ha, visual injury, approximately 10 days
[20] = 500 g ai/ha, visual injury, approximately 10 days

SMILES | Plant response rating, Foxtail, Giant [1, 19] | Plant response rating, Foxtail, Giant [1, 20] | Plant response rating, Ragweed [2, 19] | Plant response rating, Ragweed [2, 20] | Plant response rating, Pigweed ([3]; 125 g ai/ha) | Plant response rating, Pigweed ([3]; 500 g ai/ha) | Plant response rating, Pigweed [4, 19] | Plant response rating, Pigweed [4, 20] | Plant response rating, Foxtail, Giant ([5]; 125 g ai/ha) | Plant response rating, Barnyardgrass [6, 19] | Plant response rating, Corn (corn (Zea mays); [19]) | Plant response rating, Ryegrass, Italian ([9]; 125 g ai/ha) | Plant response rating, Kochia (kochia (Kochia scoparia) [10]; [19]) | Plant response rating, Ryegrass, Italian [11, 19] | Plant response rating, Wheat [12, 19] | Plant response rating, Barnyardgrass ([13]; 125 g ai/ha) | Plant response rating, Kochia (kochia (Kochia scoparia) [14]; 125 g ai/ha) | Plant response rating, Ragweed ([15]; 125 g ai/ha) | Plant response rating, Blackgrass [16, 19] | Plant response rating, Galium [17, 19] | other results
CN1CC(c2cccc(Oc3ncc(F)cn3)c2)C(C(=O)Nc2ccccc2F)C1=O (single isomer, unassigned) [Compound 36] | 80 | 80 | 0 | 40 | 0 | 40 | 30 | 50 | 90 | 90 | 40 | 0 | 0 | 0 | 0 | 90 | 0 | 0 | 20 | 40 | Plant response rating, Foxtail, Giant ([5]; 500 g ai/ha): 90; Plant response rating, Barnyardgrass [6, 20]: 90; Plant response rating, Corn (corn (Zea mays); [20]): 90; Plant response rating, Sedge, Umbrella (Flood) ([7]; 250 g ai/ha): 0; Plant response rating, Ducksalad (Flood) ([8]; 250 g ai/ha): 0; Plant response rating, Ryegrass, Italian ([9]; 500 g ai/ha): 90; Plant response rating, Kochia (kochia (Kochia scoparia) [10]; [20]): 50; Plant response rating, Rice (Flood) (rice (Oryza sativa); 250 g ai/ha): 30; Plant response rating, Ryegrass, Italian [11, 20]: 50; Plant response rating, Wheat [12, 20]: 60; Plant response rating, Barnyardgrass ([13]; 500 g ai/ha): 90; Plant response rating, Kochia (kochia (Kochia scoparia) [14]; 500 g ai/ha): 40; Plant response rating, Ragweed ([15]; 500 g ai/ha): 50; Plant response rating, Blackgrass [16, 20]: 50; Plant response rating, Galium [17, 20]: 70; Plant response rating, Barnyardgrass (Flood) ([18]; 250 g ai/ha): 60
O=C1NCC(c2cccc(OCc3ccccc3)c2)C1C(=O)Nc1ccccc1Cl (stereo not drawn) [Compound 67] | 0 | 0 | 0 | 0 | 0 | 0 | 0 | 0 | 0 | 0 | 0 | 0 | 0 | 0 | 0 | 0 | 0 | 0 | 0 | 0 | Plant response rating, Foxtail, Giant ([5]; 500 g ai/ha): 0; Plant response rating, Barnyardgrass [6, 20]: 0; Plant response rating, Corn (corn (Zea mays); [20]): 0; Plant response rating, Sedge, Umbrella (Flood) ([7]; 500 g ai/ha): 0; Plant response rating, Ducksalad (Flood) ([8]; 500 g ai/ha): 0; Plant response rating, Ryegrass, Italian ([9]; 500 g ai/ha): 0; Plant response rating, Kochia (kochia (Kochia scoparia) [10]; [20]): 0; Plant response rating, Rice (Flood) (rice (Oryza sativa); 500 g ai/ha): 0; Plant response rating, Ryegrass, Italian [11, 20]: 0; Plant response rating, Wheat [12, 20]: 0; Plant response rating, Barnyardgrass ([13]; 500 g ai/ha): 0; Plant response rating, Kochia (kochia (Kochia scoparia) [14]; 500 g ai/ha): 0; Plant response rating, Ragweed ([15]; 500 g ai/ha): 0; Plant response rating, Blackgrass [16, 20]: 0; Plant response rating, Galium [17, 20]: 0; Plant response rating, Barnyardgrass (Flood) ([18]; 500 g ai/ha): 0
CN1C[C@H](c2cccc(Oc3ccc(F)cn3)c2)[C@@H](C(=O)Nc2ccc(F)c(F)c2F)C1=O [Compound 87, (3S,4S)-4-[3-[(5-fluoro-2-pyridinyl)oxy]phenyl]-1-methyl-2-oxo-N-(2,3,4-trifluorophenyl)-3-pyrrolidinecarboxamide] | 80 |  | 0 |  | 70 |  | 70 |  | 90 | 80 | 90 | 80 | 30 | 70 | 40 | 90 | 60 | 0 | 60 | 60 | Plant response rating, Foxtail, Giant ([1]; 31 g ai/ha): 70; Plant response rating, Ragweed ([2]; 31 g ai/ha): 0; Plant response rating, Pigweed ([3]; 31 g ai/ha): 70; Plant response rating, Pigweed ([4]; 31 g ai/ha): 0; Plant response rating, Foxtail, Giant ([5]; 31 g ai/ha): 90; Plant response rating, Barnyardgrass ([6]; 31 g ai/ha): 50; Plant response rating, Corn (corn (Zea mays); 31 g ai/ha): 60; Plant response rating, Sedge, Umbrella (Flood) ([7]; 250 g ai/ha): 0; Plant response rating, Ducksalad (Flood) ([8]; 250 g ai/ha): 85; Plant response rating, Ryegrass, Italian ([9]; 31 g ai/ha): 0; Plant response rating, Kochia (kochia (Kochia scoparia) [10]; 31 g ai/ha): 0; Plant response rating, Rice (Flood) (rice (Oryza sativa); 250 g ai/ha): 0; Plant response rating, Ryegrass, Italian ([11]; 31 g ai/ha): 40; Plant response rating, Wheat ([12]; 31 g ai/ha): 0; Plant response rating, Barnyardgrass ([13]; 31 g ai/ha): 60; Plant response rating, Kochia (kochia (Kochia scoparia) [14]; 31 g ai/ha): 0; Plant response rating, Ragweed ([15]; 31 g ai/ha): 0; Plant response rating, Blackgrass ([16]; 31 g ai/ha): 30; Plant response rating, Galium ([17]; 31 g ai/ha): 30; Plant response rating, Barnyardgrass (Flood) ([18]; 250 g ai/ha): 60
O=C1NCC(c2cccc(Cn3ccc(C(F)(F)F)n3)c2)C1C(=O)Nc1cccc(F)c1F (stereo not drawn) [Compound 25, N-(2,3-difluorophenyl)-2-oxo-4-[3-[[3-(trifluoromethyl)-1H-pyrazol-1-yl]methyl]phenyl]-3-pyrrolidinecarboxamide] | 20 | 60 | 0 | 0 | 0 | 0 | 0 | 0 | 50 | 20 | 0 | 0 | 0 | 0 | 0 | 20 | 0 | 0 | 0 | 0 | Plant response rating, Foxtail, Giant ([5]; 500 g ai/ha): 80; Plant response rating, Barnyardgrass [6, 20]: 60; Plant response rating, Corn (corn (Zea mays); [20]): 0; Plant response rating, Sedge, Umbrella (Flood) ([7]; 500 g ai/ha): 0; Plant response rating, Ducksalad (Flood) ([8]; 500 g ai/ha): 60; Plant response rating, Ryegrass, Italian ([9]; 500 g ai/ha): 0; Plant response rating, Kochia (kochia (Kochia scoparia) [10]; [20]): 0; Plant response rating, Rice (Flood) (rice (Oryza sativa); 500 g ai/ha): 15; Plant response rating, Ryegrass, Italian [11, 20]: 0; Plant response rating, Wheat [12, 20]: 0; Plant response rating, Barnyardgrass ([13]; 500 g ai/ha): 40; Plant response rating, Kochia (kochia (Kochia scoparia) [14]; 500 g ai/ha): 20; Plant response rating, Ragweed ([15]; 500 g ai/ha): 0; Plant response rating, Blackgrass [16, 20]: 0; Plant response rating, Galium [17, 20]: 0; Plant response rating, Barnyardgrass (Flood) ([18]; 500 g ai/ha): 0
CN1CC(c2cccc(OC(F)(F)C(F)OC(F)(F)F)c2)C(C(=O)Nc2cccc(F)c2F)C1=O (stereo not drawn) [Compound 48] | 60 | 80 | 0 | 0 | 70 | 70 | 60 | 90 | 80 | 20 | 0 | 30 | 30 | 0 | 0 | 80 | 0 | 0 | 0 | 60 | Plant response rating, Foxtail, Giant ([5]; 500 g ai/ha): 90; Plant response rating, Barnyardgrass [6, 20]: 50; Plant response rating, Corn (corn (Zea mays); [20]): 40; Plant response rating, Sedge, Umbrella (Flood) ([7]; 250 g ai/ha): 0; Plant response rating, Ducksalad (Flood) ([8]; 250 g ai/ha): 80; Plant response rating, Ryegrass, Italian ([9]; 500 g ai/ha): 30; Plant response rating, Kochia (kochia (Kochia scoparia) [10]; [20]): 70; Plant response rating, Rice (Flood) (rice (Oryza sativa); 250 g ai/ha): 0; Plant response rating, Ryegrass, Italian [11, 20]: 40; Plant response rating, Wheat [12, 20]: 30; Plant response rating, Barnyardgrass ([13]; 500 g ai/ha): 90; Plant response rating, Kochia (kochia (Kochia scoparia) [14]; 500 g ai/ha): 20; Plant response rating, Ragweed ([15]; 500 g ai/ha): 0; Plant response rating, Blackgrass [16, 20]: 0; Plant response rating, Galium [17, 20]: 60; Plant response rating, Barnyardgrass (Flood) ([18]; 250 g ai/ha): 0
